Measured values published in ChEMBL document CHEMBL1909046, “DrugMatrix in vitro pharmacology data”.

What was measured:
Estrogen receptor beta = Estrogen receptor beta (Homo sapiens, UniProt Q92731); details: sf9; further: in other assays of this panel Not Active means under 50% inhibition at 10 µM
[1] = DRUGMATRIX: Phosphodiesterase PDE3 enzyme inhibition (substrate: [3H]cAMP + cAMP); type: tissue-based, Homo sapiens; details: platelet; Not Active = under 50% inhibition at 10 µM
Substance-K receptor = biological target: T1, Substance-K receptor (Homo sapiens, UniProt P21452); type: cell membranes, CHO, Membrane; details: cho; further: in other assays of this panel Not Active means under 50% inhibition at 10 µM
T1 sequence (P21452 whole entry): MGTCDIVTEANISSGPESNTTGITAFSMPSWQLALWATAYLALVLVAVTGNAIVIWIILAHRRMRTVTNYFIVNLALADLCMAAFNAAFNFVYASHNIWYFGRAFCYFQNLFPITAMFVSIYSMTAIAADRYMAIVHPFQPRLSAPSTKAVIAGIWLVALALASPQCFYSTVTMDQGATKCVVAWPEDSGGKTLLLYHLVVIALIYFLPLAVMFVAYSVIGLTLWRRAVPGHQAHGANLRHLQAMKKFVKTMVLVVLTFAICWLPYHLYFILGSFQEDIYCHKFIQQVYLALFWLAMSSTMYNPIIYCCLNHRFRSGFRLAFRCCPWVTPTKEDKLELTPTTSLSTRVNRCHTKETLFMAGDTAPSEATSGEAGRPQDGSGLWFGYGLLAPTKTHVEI

Nitric oxide synthase 1 = Nitric oxide synthase 1 (Rattus norvegicus, UniProt P29476); type: tissue-based, Cerebellum; further: in other assays of this panel Not Active means under 50% inhibition at 10 µM
Sequence of Nitric oxide synthase 1 (P29476 whole entry): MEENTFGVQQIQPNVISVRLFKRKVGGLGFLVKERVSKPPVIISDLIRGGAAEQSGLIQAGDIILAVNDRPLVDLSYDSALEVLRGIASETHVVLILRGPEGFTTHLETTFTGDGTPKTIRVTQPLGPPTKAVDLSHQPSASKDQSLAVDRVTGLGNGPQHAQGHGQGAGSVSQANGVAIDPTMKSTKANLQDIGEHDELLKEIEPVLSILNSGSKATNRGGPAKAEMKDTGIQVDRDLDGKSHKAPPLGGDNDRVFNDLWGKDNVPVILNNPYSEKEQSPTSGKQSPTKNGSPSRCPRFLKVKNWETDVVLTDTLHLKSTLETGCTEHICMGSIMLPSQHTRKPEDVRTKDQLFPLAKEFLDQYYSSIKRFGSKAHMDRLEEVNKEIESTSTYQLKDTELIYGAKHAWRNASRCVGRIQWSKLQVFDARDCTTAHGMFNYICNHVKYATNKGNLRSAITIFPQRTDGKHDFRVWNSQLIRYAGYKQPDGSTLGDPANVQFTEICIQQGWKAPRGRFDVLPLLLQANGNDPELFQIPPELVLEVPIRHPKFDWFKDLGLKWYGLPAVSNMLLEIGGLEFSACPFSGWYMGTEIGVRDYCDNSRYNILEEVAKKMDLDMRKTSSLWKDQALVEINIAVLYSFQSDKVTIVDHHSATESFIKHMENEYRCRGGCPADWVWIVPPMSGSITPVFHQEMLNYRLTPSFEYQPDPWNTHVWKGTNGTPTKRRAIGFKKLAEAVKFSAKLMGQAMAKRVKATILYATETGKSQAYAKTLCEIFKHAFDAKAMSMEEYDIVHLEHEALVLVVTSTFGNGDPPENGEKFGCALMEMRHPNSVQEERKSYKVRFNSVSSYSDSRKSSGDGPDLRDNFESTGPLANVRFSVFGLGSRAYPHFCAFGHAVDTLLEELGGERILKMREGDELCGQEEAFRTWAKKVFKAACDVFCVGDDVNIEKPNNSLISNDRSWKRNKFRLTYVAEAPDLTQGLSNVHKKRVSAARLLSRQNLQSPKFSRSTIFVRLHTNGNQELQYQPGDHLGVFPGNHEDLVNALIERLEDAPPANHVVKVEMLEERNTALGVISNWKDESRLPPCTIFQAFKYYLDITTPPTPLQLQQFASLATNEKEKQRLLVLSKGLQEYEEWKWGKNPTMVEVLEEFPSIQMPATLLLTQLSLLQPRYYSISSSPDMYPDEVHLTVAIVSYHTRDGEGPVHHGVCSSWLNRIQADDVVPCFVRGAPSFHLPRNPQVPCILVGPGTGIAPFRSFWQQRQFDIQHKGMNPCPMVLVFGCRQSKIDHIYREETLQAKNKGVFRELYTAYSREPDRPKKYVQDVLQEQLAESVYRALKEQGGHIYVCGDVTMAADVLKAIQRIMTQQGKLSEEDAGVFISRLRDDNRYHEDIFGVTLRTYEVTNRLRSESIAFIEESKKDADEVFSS

[2] = DRUGMATRIX: Purinergic P2X radioligand binding (ligand: [3H] alpha, beta-Methylene-ATP); type: cell membranes, Oryctolagus cuniculus, New Zealand albino, Urinary bladder, Membrane; details: Not Active = under 50% inhibition at 10 µM
Caspase-1 = biological target: T2, Caspase-1 (Homo sapiens, UniProt P29466); parameters: species or system Escherichia coli;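 further: Caspase-1 enzyme inhibition assay with a peptide substrate; in other assays of this panel Not Active means under 50% inhibition at 10 µM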
T2 sequence (P29466 whole entry): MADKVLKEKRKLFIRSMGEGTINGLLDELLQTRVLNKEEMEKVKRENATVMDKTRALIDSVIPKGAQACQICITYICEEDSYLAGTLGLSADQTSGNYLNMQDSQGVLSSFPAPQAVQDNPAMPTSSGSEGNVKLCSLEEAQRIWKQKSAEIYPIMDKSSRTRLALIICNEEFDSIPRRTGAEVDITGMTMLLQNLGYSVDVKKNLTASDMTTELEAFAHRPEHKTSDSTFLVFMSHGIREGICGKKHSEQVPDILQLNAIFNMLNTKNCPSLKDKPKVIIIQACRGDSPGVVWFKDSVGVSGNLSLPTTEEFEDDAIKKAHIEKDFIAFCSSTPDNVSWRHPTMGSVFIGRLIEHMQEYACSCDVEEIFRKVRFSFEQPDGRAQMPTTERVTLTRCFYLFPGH

[3] = biological target: T3, Muscarinic acetylcholine receptor M5 (Homo sapiens, UniProt P08912); type: cell membranes, CHO-K1, Membrane; further: in other assays of this panel Not Active means under 50% inhibition at 10 µM
T3 sequence (P08912 whole entry): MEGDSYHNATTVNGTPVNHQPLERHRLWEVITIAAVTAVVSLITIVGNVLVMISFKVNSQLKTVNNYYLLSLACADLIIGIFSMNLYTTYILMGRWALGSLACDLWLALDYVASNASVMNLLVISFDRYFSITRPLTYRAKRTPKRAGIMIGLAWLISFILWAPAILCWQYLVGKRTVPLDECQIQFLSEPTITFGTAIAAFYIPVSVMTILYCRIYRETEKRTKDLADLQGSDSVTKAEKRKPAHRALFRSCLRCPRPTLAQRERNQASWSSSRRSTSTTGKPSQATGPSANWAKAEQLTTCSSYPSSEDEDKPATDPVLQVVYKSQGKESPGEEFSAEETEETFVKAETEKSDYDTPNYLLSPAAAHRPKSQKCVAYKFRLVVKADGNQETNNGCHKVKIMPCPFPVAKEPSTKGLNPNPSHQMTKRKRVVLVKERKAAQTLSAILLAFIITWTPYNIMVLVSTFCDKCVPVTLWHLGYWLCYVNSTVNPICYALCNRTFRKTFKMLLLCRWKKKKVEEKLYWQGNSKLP

Sequence of Estrogen receptor beta (Q92731 whole entry): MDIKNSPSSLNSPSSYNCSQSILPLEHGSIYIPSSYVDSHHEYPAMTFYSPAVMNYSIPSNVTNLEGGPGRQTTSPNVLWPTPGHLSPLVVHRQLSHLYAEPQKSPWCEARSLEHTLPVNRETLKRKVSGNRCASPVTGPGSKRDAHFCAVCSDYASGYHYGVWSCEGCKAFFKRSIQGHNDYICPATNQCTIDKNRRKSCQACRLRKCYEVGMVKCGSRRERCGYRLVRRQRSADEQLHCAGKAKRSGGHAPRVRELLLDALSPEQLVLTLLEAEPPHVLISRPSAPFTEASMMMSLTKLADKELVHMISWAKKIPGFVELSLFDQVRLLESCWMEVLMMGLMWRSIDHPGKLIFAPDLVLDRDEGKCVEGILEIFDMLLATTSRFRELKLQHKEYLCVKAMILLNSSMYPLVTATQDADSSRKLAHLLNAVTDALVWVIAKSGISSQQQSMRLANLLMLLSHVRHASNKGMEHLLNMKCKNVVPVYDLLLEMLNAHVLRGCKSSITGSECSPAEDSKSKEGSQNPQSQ

| Structure (SMILES) | IC50 (Estrogen receptor beta) | IC50 [1] | Ki [1] | IC50 (Substance-K receptor) | IC50 (Nitric oxide synthase 1) | IC50 [2] | Ki [2] | IC50 (Caspase-1) | IC50 ([3]; cho-k1) | IC50 ([3]; read-out: IC50) | Ki ([3]; read-out: Ki) | Ki ([3]; cho-k1) |
| --- | --- | --- | --- | --- | --- | --- | --- | --- | --- | --- | --- | --- |
| CC(O)COC[C@H]1O[C@@H]2O[C@H]3[C@H](O)[C@@H](O)[C@@H](O[C@H]4[C@H](O)[C@@H](O)[C@@H](O[C@H]5[C@H](O)[C@@H](O)[C@@H](O[C@H]6[C@H](O)[C@@H](O)[C@@H](O[C@H]7[C@H](O)[C@@H](O)[C@@H](O[C@H]8[C@H](O)[C@@H](O)[C@@H](O[C@H]1[C@H](O)[C@H]2O)O[C@@H]8COCC(C)O)O[C@@H]7COCC(C)O)O[C@@H]6COCC(C)O)O[C@@H]5COCC(C)O)O[C@@H]4COCC(C)O)O[C@@H]3COCC(C)O (stereo partly drawn) [2-HYDROXYPROPYL-BETA-CYCLODEXTRIN] | Not Active | Not Active | Not Active | Not Active | Not Active | Not Active | Not Active | Not Active | Not Active | – | – | – |
| NC(=O)c1cccc(N)c1 [3-AMINOBENZAMIDE] | Not Active | Not Active | Not Active | Not Active | Not Active | Not Active | Not Active | Not Active | Not Active | – | – | – |
| C[C@H]1O[C@H](O[C@H]2[C@H](O)[C@@H](O)[C@@H](O[C@H]3[C@H](O)[C@@H](O)C(O)O[C@@H]3CO)O[C@@H]2CO)[C@H](O)[C@@H](O)[C@@H]1N[C@H]1C=C(CO)[C@@H](O)[C@H](O)[C@H]1O (stereo partly specified) [ACARBOSE] | Not Active | Not Active | Not Active | Not Active | Not Active | Not Active | Not Active | Not Active | Not Active | – | – | – |
| CC[C@H]1[C@@H]2C[C@H]3[C@@H]4N(C)c5ccccc5[C@]45C[C@@H]([C@@H]2[C@H]5O)N3[C@@H]1O [AJMALINE] | Not Active | Not Active | Not Active | Not Active | Not Active | Not Active | Not Active | Not Active | Not Active | – | – | – |
| NCCCNCCSP(=O)(O)O [AMIFOSTINE] | Not Active | Not Active | Not Active | Not Active | Not Active | Not Active | Not Active | Not Active | Not Active | – | – | – |
| CN(C)CCC=C1c2ccccc2CCc2ccccc21 [AMITRIPTYLINE] | Not Active | Not Active | Not Active | Not Active | Not Active | Not Active | Not Active | Not Active | – | 8.02 nM | 5.76 nM | – |
| CC(=O)Oc1ccccc1C(=O)O [ASPIRIN] | Not Active | Not Active | Not Active | Not Active | Not Active | Not Active | Not Active | Not Active | Not Active | – | – | – |
| CC(=O)OC[C@H]1O[C@@H](n2ncc(=O)[nH]c2=O)[C@H](OC(C)=O)[C@@H]1OC(C)=O [AZARIBINE] | Not Active | Not Active | Not Active | Not Active | Not Active | Not Active | Not Active | Not Active | – | – | – | Not Active |
| C[C@H]1[C@H](NC(=O)/C(=N\OC(C)(C)C(=O)O)c2csc(N)n2)C(=O)N1S(=O)(=O)O [AZTREONAM] | Not Active | Not Active | Not Active | Not Active | Not Active | Not Active | Not Active | Not Active | Not Active | – | – | – |
| O=C(O)CCNC(=O)c1ccc(/N=N/c2ccc(O)c(C(=O)O)c2)cc1 [BALSALAZIDE] | Not Active | Not Active | Not Active | Not Active | Not Active | Not Active | Not Active | Not Active | Not Active | – | – | – |
| ClC(Cl)(Cl)Cl [CARBON TETRACHLORIDE] | Not Active | Not Active | Not Active | Not Active | Not Active | Not Active | Not Active | Not Active | Not Active | – | – | – |
| CO/N=C(\C(=O)N[C@@H]1C(=O)N2C(C(=O)O)=C(COC(C)=O)CS[C@H]12)c1csc(N)n1 [CEFOTAXIME] | Not Active | Not Active | Not Active | Not Active | Not Active | Not Active | Not Active | Not Active | Not Active | – | – | – |
| CNC1=Nc2ccc(Cl)cc2C(c2ccccc2)=[N+]([O-])C1 [CHLORDIAZEPOXIDE] | Not Active | Not Active | Not Active | Not Active | Not Active | Not Active | Not Active | Not Active | Not Active | – | – | – |
| Cc1cc(O)cc(C)c1Cl [CHLOROXYLENOL] | Not Active | Not Active | Not Active | Not Active | Not Active | Not Active | Not Active | Not Active | Not Active | – | – | – |
| CCCNC(=O)NS(=O)(=O)c1ccc(Cl)cc1 [CHLORPROPAMIDE] | Not Active | Not Active | Not Active | Not Active | Not Active | Not Active | Not Active | Not Active | Not Active | – | – | – |
| NS(=O)(=O)c1cc(C2(O)NC(=O)c3ccccc32)ccc1Cl (stereo unspecified) [CHLORTHALIDONE] | Not Active | Not Active | Not Active | Not Active | Not Active | Not Active | Not Active | Not Active | Not Active | – | – | – |
| O=C(O)CC(O)(CC(=O)O)C(=O)O [CITRIC ACID] | Not Active | Not Active | Not Active | Not Active | Not Active | Not Active | Not Active | Not Active | Not Active | – | – | – |
| CN1CCN(C(c2ccccc2)c2ccccc2)CC1 [CYCLIZINE] | Not Active | Not Active | Not Active | Not Active | Not Active | Not Active | Not Active | Not Active | – | 633 nM | 455 nM | – |
| CN1C[C@@H]2C[C@H]1CN2c1cc2c(cc1F)c(=O)c(C(=O)O)cn2C1CC1 [DANOFLOXACIN] | Not Active | Not Active | Not Active | Not Active | Not Active | Not Active | Not Active | Not Active | Not Active | – | – | – |
| COc1cccc2c1C(=O)c1c(O)c3c(c(O)c1C2=O)C[C@@](O)(C(C)=O)C[C@@H]3O[C@H]1C[C@H](N)[C@H](O)[C@H](C)O1 [DAUNORUBICIN] | Not Active | Not Active | Not Active | Not Active | Not Active | Not Active | Not Active | Not Active | Not Active | – | – | – |
| O=C(O)c1cc(-c2ccc(F)cc2F)ccc1O [DIFLUNISAL] | Not Active | Not Active | Not Active | Not Active | Not Active | Not Active | Not Active | Not Active | Not Active | – | – | – |
